Like-named read-outs stand apart in the source and are kept apart here.
Tests used:
melanoma cell lines = assay: Cell based assay, cell viability (CellTiter-Glo), melanoma cell lines; conditions: Homo sapiens; LOX-IMVI cell line
Method: (§1) Commercially available bladder cancer, prostate cancer, lung cancer, breast cancer, blood cancer, pancreatic cancer, colorectal cancer, brain cancer, neuroblastoma, melanoma, liver cancer, cervical carcinoma, ovarian cancer, renal cancer, and papilloma cell lines were each treated with trypsin-EDTA and cultured, followed by being seeded in each well of a 96 well plate. After 24 hours of treatment at constant temperature, the respective cells were treated with the candidate compound so that a final concentration became 0 to 2 μM. The treated cells were additionally cultured for 72 hours, and cell viability was measured by using an ATP detection method (CellTiter-Glo® Luminescent Cell Viability Assay, Promega).

neuroblastoma cell lines = assay: Cell based assay, cell viability (CellTiter-Glo), neuroblastoma cell lines; conditions: Homo sapiens; SH-SY5Y cell line
Method: as §1

[1] = tested on: colorectal cancer cell lines (e.g. DLD-1, HCT 116, SW620, HCT-15, HCT-8, RKO); assay: Cell based assay, cell viability (CellTiter-Glo), colorectal cancer cell lines
Method: as §1

[2] = Homo sapiens, DLD-1 cells, 72 hours treatment, read-out: IC50, colorectal cancer cell line DLD-1
[3] = Homo sapiens, HCT 116 cells, 72 hours treatment, read-out: IC50, colorectal cancer cell line HCT 116
[4] = Homo sapiens, HCT-8 cells, 72 hours treatment, read-out: IC50, colorectal cancer cell line HCT-8
[5] = Homo sapiens, HCT-15 cells, 72 hours treatment, read-out: IC50, colorectal cancer cell line HCT-15
[6] = Homo sapiens, HT-29 cells, 72 hours treatment, read-out: IC50, colorectal cancer cell line HT-29
[7] = Homo sapiens, LoVo cells, 72 hours treatment, read-out: IC50, colorectal cancer cell line LoVo
[8] = Homo sapiens, RKO cells, 72 hours treatment, read-out: IC50, colorectal cancer cell line RKO
[9] = Homo sapiens, SW480 cells, 72 hours treatment, read-out: IC50, colorectal cancer cell line SW480
[10] = Homo sapiens, SW-620, SW620 cells, 72 hours treatment, read-out: IC50, colorectal cancer cell line SW620
[11] = Homo sapiens, DLD-1, 72 hours treatment, read-out: IC50, colorectal cancer cell line DLD-1
[12] = Homo sapiens, HCT 116, 72 hours treatment, read-out: IC50, colorectal cancer cell line HCT 116
[13] = Homo sapiens, HCT-8, 72 hours treatment, read-out: IC50, colorectal cancer cell line HCT-8
[14] = Homo sapiens, HCT-15, 72 hours treatment, read-out: IC50, colorectal cancer cell line HCT-15
[15] = Homo sapiens, HT-29, 72 hours treatment, read-out: IC50, colorectal cancer cell line HT-29
[16] = Homo sapiens, LoVo, 72 hours treatment, read-out: IC50, colorectal cancer cell line LoVo
[17] = Homo sapiens, SW480, 72 hours treatment, read-out: IC50, colorectal cancer cell line SW480
[18] = Homo sapiens, SW-620, SW620, 72 hours treatment, read-out: IC50, colorectal cancer cell line SW620
[19] = RKO, 72 hours treatment, read-out: IC50, colorectal cancer cell line RKO

SMILES	IC50 (melanoma cell lines) [µM]	IC50 (neuroblastoma cell lines) [µM]	IC50 [1, 2] [µM]	IC50 [1, 3] [µM]	IC50 [1, 4] [µM]	IC50 [1, 5] [µM]	IC50 [1, 6] [µM]	IC50 [1, 7] [µM]	IC50 [1, 8] [µM]	IC50 [1, 9] [µM]	IC50 [1, 10] [µM]	IC50 [1, 11] [µM]	IC50 [1, 12] [µM]	IC50 [1, 13] [µM]	IC50 [1, 14] [µM]	IC50 [1, 15] [µM]	IC50 [1, 16] [µM]	IC50 [1, 17] [µM]	IC50 [1, 18] [µM]	IC50 [1, 19] [µM]
CC(=O)c1c(S(C)(=O)=O)n(C(=O)c2ccc(Br)cc2)c2c(Br)ccc(Cl)c2c1=O [Compound 21, 3-acetyl-8-bromo-1-(4-bromobenzoyl)-5-chloro-2-(methylsulfonyl)quinolin-4(1H)-one]	> 2	> 2										> 2	> 2	> 2	> 2	> 10	> 2	> 2	> 2	> 2
CC(=O)c1c(S(C)(=O)=O)n(S(=O)(=O)c2ccc(C(C)(C)C)cc2)c2c(Br)ccc(Cl)c2c1=O [Compound 41, 3-acetyl-8-bromo-1-((4-(tert-butyl)phenyl)sulfonyl)-5-chloro-2-(methylsulfonyl)quinolin-4(1H)-one]	> 2	> 2										> 2	> 2	> 2	> 2	> 10	> 2	> 2	> 2	> 2
CC(=O)c1c([S+]([O-])C(C)C)[nH]c2c(Br)ccc(Cl)c2c1=O (stereo not shown) [Compound 25, 3-acetyl-8-bromo-5-chloro-2-(isopropylsulfinyl)quinolin-4(1H)-one]	> 2	> 2										> 2	> 2	> 2	> 2	> 10	> 2	> 2	> 2	> 2
CC(=O)c1c([S+]([O-])Cc2ccccc2)nc2c(Br)ccc(Cl)c2c1O (stereo not shown) [Compound 4]	1.09	> 2										1.84	1.15	1.58	1.33	> 10	1.8	> 2	1.33	1.55
CC(=O)c1c([S+]([O-])Cc2ccc(C(F)(F)F)o2)[nH]c2c(F)ccc(F)c2c1=O (stereo not shown) [Compound 81, 3-acetyl-5,8-difluoro-2-(((5-(trifluoromethyl)furan-2-yl)methyl)sulfinyl)quinolin-4(1H)-one]	> 2	> 2										> 2	> 2	> 2	> 2	> 10	> 2	> 2	> 2	> 2
O=C(c1c([S+]([O-])Cc2ccc(SC(F)(F)F)cc2)[nH]c2c(Br)ccc(Cl)c2c1=O)C1CC1 (stereo not shown) [Compound 101, 8-bromo-5-chloro-3-(cyclopropanecarbonyl)-2-((4-((trifluoromethyl)thio)benzyl)sulfinyl)quinolin-4(1H)-one]	> 2	1.4	> 2	1.74	1.61	> 2	> 10	> 2	1.91	> 2	> 2									
CC(=O)c1c(SCc2cccc(C#N)c2)[nH]c2c(Br)ccc(Cl)c2c1=O [Compound 27, 3-(((3-acetyl-8-bromo-5-chloro-4-oxo-1,4-dihydroquinolin-2-yl)thio)methyl)benzonitrile]	> 2	> 2										> 2	> 2	> 2	> 2	> 10	> 2	> 2	> 2	> 2
CC(=O)c1c(SCC#N)[nH]c2c(Br)ccc(Cl)c2c1=O [Compound 66, 2-((3-acetyl-8-bromo-5-chloro-4-oxo-1,4-dihydroquinolin-2-yl)thio)acetonitrile]	> 2	> 2										> 2	> 2	> 2	> 2	> 10	> 2	> 2	> 2	> 2
O=C(c1ccccc1)c1c([S+]([O-])Cc2ccc(S(F)(F)(F)(F)F)cc2)[nH]c2c(F)ccc(F)c2c1=O (stereo not shown) [Compound 87, 3-benzoyl-5,8-difluoro-2-((4-(pentafluoro--sulfanyl)benzyl)sulfinyl)quinolin-4(1H)-one]	> 2	> 2	> 2	> 2	> 2	> 2	> 10	> 2	> 2	> 2	> 2									

Second part, the compound after the results:

IC50 (melanoma cell lines) [µM]	IC50 (neuroblastoma cell lines) [µM]	IC50 [1, 2] [µM]	IC50 [1, 3] [µM]	IC50 [1, 4] [µM]	IC50 [1, 5] [µM]	IC50 [1, 6] [µM]	IC50 [1, 7] [µM]	IC50 [1, 8] [µM]	IC50 [1, 9] [µM]	IC50 [1, 10] [µM]	IC50 [1, 11] [µM]	IC50 [1, 12] [µM]	IC50 [1, 13] [µM]	IC50 [1, 14] [µM]	IC50 [1, 15] [µM]	IC50 [1, 16] [µM]	IC50 [1, 17] [µM]	IC50 [1, 18] [µM]	IC50 [1, 19] [µM]	SMILES
> 2	1.76	> 2	> 2	> 2	> 2	> 10	> 2	> 2	> 2	> 2										COc1cccc2[nH]c([S+]([O-])Cc3cc(C)on3)c(C(C)=O)c(=O)c12 (stereo not shown) [Compound 94, 3-acetyl-5-methoxy-2-(((5-methylisoxazol-3-yl)methyl)sulfinyl)quinolin-4(1H)-one]
> 2	> 2										> 2	> 2	> 2	> 2	> 10	> 2	> 2	> 2	> 2	CSc1c(C(C)=O)c(=O)c2cc(F)ccc2n1C [Compound 7, 3-acetyl-6-fluoro-1-methyl-2-(methylthio)quinolin-4(1H)-one]
> 2	> 2										> 2	> 2	> 2	> 2	> 10	> 2	> 2	> 2	> 2	CC(=O)c1c([S+](C)[O-])n(Cc2ccc(F)c(Cl)c2)c2c(Br)ccc(Cl)c2c1=O (stereo not shown) [Compound 22, 3-acetyl-8-bromo-5-chloro-1-(3-chloro-4-fluorobenzyl)-2-(methylsulfinyl)quinolin-4(1H)-one]
> 2	> 2										> 2	> 2	> 2	> 2	> 10	> 2	> 2	> 2	> 2	CC(=O)c1c(SCc2ccccc2)nc2c(Br)ccc(Cl)c2c1O [Compound 52, 1-(2-(benzylthio)-8-bromo-5-chloro-4-hydroxyquinolin-3-yl)ethan-1-one]
> 2	0.77	1.82	1.53	> 2	1.87	> 10	> 2	1.58	> 2	1.66										Cc1cc(C[S+]([O-])c2[nH]c3c(Br)ccc(Cl)c3c(=O)c2C(=O)C2CC2)no1 (stereo not shown) [Compound 96, 8-bromo-5-chloro-3-(cyclopropanecarbonyl)-2-(((5-methylisoxazol-3-yl)methyl)sulfinyl)quinolin-4(1H)-one]
> 2	> 2										> 2	> 2	> 2	> 2	> 10	> 2	> 2	> 2	> 2	CC(=O)c1c(S/C=C\C(=O)O)[nH]c2c(Br)ccc(Cl)c2c1=O [Compound 67, (Z)-3-((3-acetyl-8-bromo-5-chloro-4-oxo-1,4-dihydroquinolin-2-yl)thio)acrylic acid]
> 2	> 2										> 2	> 2	> 2	> 2	> 10	> 2	> 2	> 2	> 2	COc1ccccc1[S+]([O-])c1[nH]c2c(Br)ccc(Cl)c2c(=O)c1C(C)=O (stereo not shown) [Compound 15, 3-acetyl-8-bromo-5-chloro-2-((2-methoxyphenyl)sulfinyl)quinolin-4(1H)-one]
> 2	> 2	> 2	> 2	> 2	> 2	> 10	> 2	> 2	> 2	> 2										COc1cccc2[nH]c(SCc3ccc(S(F)(F)(F)(F)F)cc3)c(C(C)=O)c(=O)c12 [Compound 92, 3-acetyl-5-methoxy-2-((4-(pentafluoro--sulfanyl)benzyl)thio)quinolin-4(1H)-one]
> 2	1.01	> 2	> 2	> 2	> 2	> 10	> 2	> 2	> 2	> 2										CC(=O)c1c([S+]([O-])Cc2ccc(NS(C)(=O)=O)cc2)[nH]c2c(Br)ccc(Cl)c2c1=O (stereo not shown) [Compound 103, N-(4-(((3-acetyl-8-bromo-5-chloro-4-oxo-1,4-dihydroquinolin-2-yl)sulfinyl)methyl)phenyl)methane-sulfonamide]
> 2	> 2										> 2	> 2	> 2	> 2	> 10	> 2	> 2	> 2	> 2	CSc1c(C(C)=O)c(=O)c2c(Cl)ccc(Br)c2n1S(=O)(=O)c1ccc([N+](=O)[O-])cc1 [Compound 38, 3-acetyl-8-bromo-5-chloro-2-(methylthio)-1-((4-nitrophenyl)sulfonyl)quinolin-4(1H)-one]
1.03	0.6	1.36	1.25	1.35	1.42	> 10	1.52	1.27	1.69	1.1										Cc1cc(C[S+]([O-])c2[nH]c3c(Cl)ccc(Cl)c3c(=O)c2C(=O)C2CC2)no1 (stereo not shown) [Compound 97, 5,8-dichloro-3-(cyclopropanecarbonyl)-2-(((5-methylisoxazol-3-yl)methyl)sulfinyl)quinolin-4(1H)-one]

— patent publication US11464770B2, “Anticancer pharmaceutical composition” (NATIONAL CANCER CENTER, priority 2016, dated 2022)
